IC50 data for 17 compounds are collected here from patent US20250332173A1, “COMPOUNDS AND METHODS FOR MODULATING NUCLEIC ACID SPLICING” (REMIX THERAPEUTICS INC., priority 2021, published 2025).

One may read the pIC50 as the IC50 on a negative log10 scale, so that one unit is a factor of ten.

pIC50: −log10 of the molar value.

Experiment [1] relates to MYB. Briefly: HiBiT protein abundance assay, MYB HiBiT K562 cell line. The format is cell-based, human. Conditions: HiBiT lytic detection, modified K562 cells, 24 hours, top dose 10 μM; read-out: Effect on protein abundance, MYB (IC50). In outline:
(§1)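 Endogenous targets in K562 knock-in lines carried a HiBiT tag and were treated for 24 h at 37 °C with 10-point 3-fold dilutions (top 10 μM final, DMSO ≤0.25%). Abundance was read as lytic Nano-Glo HiBiT luminescence. IC50 came from a four-parameter logistic fit of normalized response.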
(With HiBiT, luminescence reflects the tagged protein that the partner subunit can reach.)

Experiment [2] relates to HTT. Kind of experiment: HiBiT protein abundance assay, HTT HiBiT K562 cell line. To be noted: HiBiT lytic detection, modified K562 cells, 24 hours, top dose 10 μM; read-out: Effect on protein abundance, HTT (IC50). The format is cell-based, human. In outline:
as §1

Experiment [3] relates to Target C. Briefly: HiBiT protein abundance assay, Target C HiBiT K562 cell line. The format is cell-based. Conditions: Homo sapiens; HiBiT lytic detection, modified K562 cells, 24 hours, top dose 10 μM; read-out: Effect on protein abundance, Target C (IC50). Summed up:
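HiBiT knock-in K562 cells (10,000/well) were treated for 24 h at 37 °C with a 10-point 3-fold dilution series, top final concentration 10 μM, DMSO ≤0.25%. Lytic HiBiT luminescence was read, normalized to unmodified K562 and DMSO-treated controls, and IC50 was interpolated from a four-parameter logistic fit.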

`Cc1cn2nc(-c3ccc4c(=O)n([C@@H]5CCNC6(CCC6)C5)ncc4n3)cc(C)c2n1` [Compound 1545, 6-[(8R)-5-azaspiro[3.5]nonan-8-yl]-2-(2,8-dimethylimidazo[1,2-b]pyridazin-6-yl)pyrido[2,3-d]pyridazin-5-one]: the pIC50 is 6.00 to 7.00 in experiment [1], more than 7.00 in experiment [2] and more than 7.00 in experiment [3].

In the case of `Cc1cn2nc(-c3ccc4c(=O)n(C5CCNC6(CCC6)C5)ncc4n3)cc(C)c2n1` (stereo not drawn) [Compound 1553], the negative-log IC50 (pIC50) was 5.00 to 6.00 in experiment [1], 6.00 to 7.00 in experiment [2] and 5.00 to 6.00 in experiment [3].

Regarding `Cn1cc2ccc(-n3cnc4ccc(NC5CCNCC5)cc4c3=O)cc2n1` [Compound 2164], the negative-log IC50 (pIC50) in experiment [1], in experiment [2] and in experiment [3] was less than 5.00 throughout.

As for `Cc1cc(-c2ccc3ncn(C4CCNCC4)c(=O)c3c2)cc2cn(C)nc12` [Compound 2169], the negative-log IC50 (pIC50) in experiment [1], in experiment [2] and in experiment [3] was less than 5.00 in each case.

Consider `Cc1cc(-c2ccc3ncn(C4CCN(C)CC4)c(=O)c3c2)cc2cn(C)nc12` [Compound 2170], for which the negative-log IC50 (pIC50) in experiment [1], in experiment [2] and in experiment [3] was less than 5.00 throughout.

`CN1CCC(Nc2ccc3ncn(-c4ccc5nn(C)cc5c4)c(=O)c3c2)CC1` [Compound 2171]: the negative logarithm of the IC50 (pIC50) in experiment [1], in experiment [2] and in experiment [3] was less than 5.00 each time.

Take `Cc1cn2cc(-n3cnc4ccc(N5CCNCC5)cc4c3=O)cc(F)c2n1` [Compound 2195]: the negative logarithm of the IC50 (pIC50) in experiment [1], in experiment [2] and in experiment [3] was less than 5.00 in each case.

Take `Cn1cc2cc(-n3cnc4ccc(N5CCNCC5)cc4c3=O)cc(F)c2n1` [Compound 2196]: the pIC50 in experiment [1], in experiment [2] and in experiment [3] was less than 5.00 each time.

`Cc1cn2cc(-n3cnc4ccc(N5CCN(C)CC5)cc4c3=O)cc(F)c2n1` [Compound 2197]: the negative logarithm of the IC50 (pIC50) in experiment [1], in experiment [2] and in experiment [3] was 5.00 to 6.00 each time.

Turning to `CN(c1ccc2ncn(-c3cc(F)c4nn(C)cc4c3)c(=O)c2c1)C1CCNCC1` [Compound 2198], the pIC50 in experiment [1], in experiment [2] and in experiment [3] was less than 5.00 throughout.

Take `CN1CCC(N(C)c2ccc3ncn(-c4cc(F)c5nn(C)cc5c4)c(=O)c3c2)CC1` [Compound 2199]: the negative logarithm of the IC50 (pIC50) in experiment [1], in experiment [2] and in experiment [3] was less than 5.00 throughout.

With `Cc1cn2cc(-n3cnc4ccc(N(C)C5CCNCC5)cc4c3=O)cc(F)c2n1` [Compound 2200], the pIC50 in experiment [1], in experiment [2] and in experiment [3] was less than 5.00 throughout.

`Cc1cn2nc(-n3cnc4ccc(N5CCNCC5)cc4c3=O)cc(C)c2n1` [Compound 2201]: the pIC50 in experiment [1], in experiment [2] and in experiment [3] was less than 5.00 throughout.

For `Cc1cn2nc(-n3cnc4ccc(N5CCN(C)CC5)cc4c3=O)cc(C)c2n1` [Compound 2202], the pIC50 in experiment [1], in experiment [2] and in experiment [3] was 5.00 to 6.00 in each case.

In the case of `Cc1cc(-c2ccc3c(=O)[nH]c(N4CCNCC4)nc3c2)cc2cn(C)nc12` [Compound 2211], the pIC50 in experiment [1], in experiment [2] and in experiment [3] was less than 5.00 in each case.

As to `Cc1cc(-c2ccc3c(=O)[nH]c(N4CCN(C)CC4)nc3c2)cc2cn(C)nc12` [Compound 2212], the negative logarithm of the IC50 (pIC50) in experiment [1], in experiment [2] and in experiment [3] was less than 5.00 throughout.

As to `Cc1cc(-c2nc3cc(N4CCNCC4)ccc3c(=O)[nH]2)cc2cn(C)nc12` [Compound 2213], the pIC50 in experiment [1], in experiment [2] and in experiment [3] was less than 5.00 each time.
